Assay results taken from ChEMBL document CHEMBL1141633, “Synthesis and biological evaluation of chalcones as inhibitors of the voltage-gated potassium channel Kv1.3” (Bioorg Med Chem Lett, 2008).

What was measured:
[1] = biological target: T1, Potassium voltage-gated channel subfamily A member 3 (Homo sapiens, UniProt P22001); assay: Inhibition in Kv1.3 expressed in human Jurkat cells by patch clamp method; type: cell-based
[2] = biological target: T1, Potassium voltage-gated channel subfamily A member 3; assay: Inhibition in Kv1.3 expressed in […] by patch clamp method

T1 sequence (P22001 whole entry): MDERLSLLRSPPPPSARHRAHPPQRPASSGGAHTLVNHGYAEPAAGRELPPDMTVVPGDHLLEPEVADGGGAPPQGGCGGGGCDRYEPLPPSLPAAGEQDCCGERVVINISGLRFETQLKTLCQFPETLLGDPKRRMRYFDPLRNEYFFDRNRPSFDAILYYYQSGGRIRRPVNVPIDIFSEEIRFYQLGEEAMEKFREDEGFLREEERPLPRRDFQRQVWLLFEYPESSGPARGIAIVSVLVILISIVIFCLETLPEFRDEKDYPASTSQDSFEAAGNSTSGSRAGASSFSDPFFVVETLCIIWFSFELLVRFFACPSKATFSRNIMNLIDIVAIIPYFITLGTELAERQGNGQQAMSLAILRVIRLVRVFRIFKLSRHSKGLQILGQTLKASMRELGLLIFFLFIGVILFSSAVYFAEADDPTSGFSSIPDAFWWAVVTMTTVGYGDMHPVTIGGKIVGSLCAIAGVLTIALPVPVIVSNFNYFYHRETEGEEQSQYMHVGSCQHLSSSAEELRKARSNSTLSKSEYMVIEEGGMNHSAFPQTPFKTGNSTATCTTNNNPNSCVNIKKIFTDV

SMILES	EC50 [1]	EC50 [2]
COc1cccc(/C=C/C(=O)c2c(O)c(OC)c3occc3c2OC)c1	900 nM	800 nM
COc1cccc(/C=C/C(=O)c2cc(OC)c3occc3c2OC)c1	2400 nM	
COc1c(C(=O)/C=C/c2ccccc2)cc(OC)c2occc12	2400 nM	
COc1c(C(=O)/C=C/c2ccccc2)c(O)c(OC)c2occc12		400 nM
COc1cccc(/C=C/C(=O)c2cc3ccoc3c(OC)c2O)c1	1700 nM	
COc1cccc(/C=C(\C)C(=O)c2c(O)c(OC)c3occc3c2OC)c1	3000 nM	
COc1c(C(=O)/C=C/c2ccccc2)c(O)cc2occc12		17000 nM
